Laboratory results reported in ChEMBL document CHEMBL1201862, “PubChem BioAssay data set” (2004).
Calls of active or inactive are those of the source.

Legend:
[1] = target: DNA dC->dU-editing enzyme APOBEC-3A (Homo sapiens, UniProt P31941); assay: A3A deaminase inhibition for selectivity – biochemical, dose response (AID 504722); type: functional
[2] = target: DNA dC->dU-editing enzyme APOBEC-3G (Homo sapiens, UniProt Q9HC16); assay: Dose Response confirmation of small molecule APOBEC3G DNA Deaminase Inhibitors via a fluorescence-based single-stranded DNA deaminase assay. [Related pubchem assays (depositor defined):AID493012, AID493028]; type: functional
[3] = target: FAD-linked sulfhydryl oxidase ALR (Homo sapiens, UniProt P55789); assay: ALR-catalysed DTT oxidation blockers – biochemical, H2O2 detection, luminescence, cherry-pick, dose response (AID 493248)
[4] = target: G-protein coupled receptor 55 (Homo sapiens, UniProt Q9Y2T6); assay: inhibition of LPI-stimulated GPR55 beta-arrestin translocation – imaging, U2OS, beta-arrestin-GFP, LPI agonist, primary screen (AID 2013); type: functional;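 also: antagonist potency measured as reduced agonist-driven arrestin aggregation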
[5] = microbe, parasite or virus in culture; type: functional; conditions: Mycobacterium tuberculosis
[6] = target: Melanocortin receptor 4 (Homo sapiens, UniProt P32245); type: functional, cell-based;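 also: Cell-based assay with luminescence read-out, confirmatory dose-response testing for agonist activity of biased ligands at MC4R; human U2OS cells with tagged receptor and beta-arrestin; potency of agonists that increase receptor coupling to beta-arrestin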
[7] = target: T1, Estrogen receptor (Homo sapiens, UniProt P03372);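 also: potency for inhibiting coactivator peptide recruitment to the receptor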
T1 sequence (P03372 whole entry): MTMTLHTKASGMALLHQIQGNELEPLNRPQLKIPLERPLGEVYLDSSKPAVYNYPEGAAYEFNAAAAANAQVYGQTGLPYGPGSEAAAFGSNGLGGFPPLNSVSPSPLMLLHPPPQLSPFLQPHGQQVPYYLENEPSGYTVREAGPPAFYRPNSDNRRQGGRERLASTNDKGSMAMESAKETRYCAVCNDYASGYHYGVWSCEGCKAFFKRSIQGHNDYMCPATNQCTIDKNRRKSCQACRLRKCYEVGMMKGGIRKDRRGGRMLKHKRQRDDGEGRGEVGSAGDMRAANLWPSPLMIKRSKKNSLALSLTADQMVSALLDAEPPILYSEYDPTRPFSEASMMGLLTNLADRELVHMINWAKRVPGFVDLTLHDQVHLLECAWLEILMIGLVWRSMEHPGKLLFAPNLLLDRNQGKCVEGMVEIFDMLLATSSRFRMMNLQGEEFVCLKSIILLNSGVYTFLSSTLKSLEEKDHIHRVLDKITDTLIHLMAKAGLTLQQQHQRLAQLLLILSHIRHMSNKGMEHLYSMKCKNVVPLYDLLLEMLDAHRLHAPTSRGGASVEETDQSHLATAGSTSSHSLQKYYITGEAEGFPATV

[8] = target: T2, Estrogen receptor beta (Homo sapiens, UniProt Q92731);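 also: recombinant ER-beta bound to coactivator SRC1 peptide in presence of estradiol agonist; inhibitors block coactivator peptide binding and lower the FRET signal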
[9] = target: T2, Estrogen receptor beta; assay: blockers of SRC-3 recruitment to ERβ – biochemical, ELISA, streptavidin-HRP readout, orthogonal assay, confirmation (AID 1060)
[10] = target: Induced myeloid leukemia cell differentiation protein Mcl-1 (Homo sapiens, UniProt Q07820); type: functional
[11] = target: Eukaryotic translation initiation factor 4H (Homo sapiens, UniProt Q15056); assay: inhibitors of translation initiation factor eIF4H – SAR follow-up (AID 435011); type: functional
[12] = target: Polyadenylate-binding protein 1 (Homo sapiens, UniProt P11940); assay: PABP inhibition in translation initiation, SAR follow-up (AID 435018); type: functional
[13] = target: T3, Carboxy-terminal domain RNA polymerase II polypeptide A small phosphatase 1 (Homo sapiens, UniProt Q9GZU7); assay: CTDSP1 inhibitors, concentration-response, biochemical, absorbance readout, ultra-high-throughput screen actives (AID 540297); type: functional
T3 sequence (Q9GZU7 whole entry): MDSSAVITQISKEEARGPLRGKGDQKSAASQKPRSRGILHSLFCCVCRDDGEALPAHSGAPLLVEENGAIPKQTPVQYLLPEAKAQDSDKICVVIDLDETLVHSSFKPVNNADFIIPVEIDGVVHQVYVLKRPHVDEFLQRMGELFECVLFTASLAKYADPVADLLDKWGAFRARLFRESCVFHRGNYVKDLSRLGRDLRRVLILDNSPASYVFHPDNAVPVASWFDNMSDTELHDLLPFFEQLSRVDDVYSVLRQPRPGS

[14] = target: DNA (cytosine-5)-methyltransferase 1 (Homo sapiens, UniProt P26358); assay: inhibition of DNA methylation by DNMT1 – biochemical, fluorescent molecular beacon, confirmation (AID 602386); type: functional
[15] = blockers of HIV-1 envelope-mediated cell-cell fusion – cherry-pick, dose response (AID 652057); type: functional, cell-based
[16] = blockers of HIV-1 ZM109 envelope-driven cell-cell fusion – HeLa effector, CEM target cells, luciferase, cherry-pick, dose response (AID 652058); type: functional, cell-based;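 also: luciferase signal from HIV-1 Env mediated cell-cell fusion of effector and target cells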
[17] = off-target signal loss in HeLa-CEM21 co-culture – HeLa F-luc CTL cells, cherry-picked, counter-screen for HIV-1 Env fusion inhibitor project, dose response (AID 652040); type: functional, cell-based;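 also: potency for signal decrease marking cytotoxic or nonspecific inhibition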
[18] = target: Beta-galactosidase (Escherichia coli, UniProt Q8VNN2); assay: detection-enzyme interference by beta-gal modulators – biochemical, E. coli enzyme, set 3, artefact control for CCR6 antagonist project, dose response (AID 504712); type: functional
[19] = target: T4, Hexokinase HKDC1 (Homo sapiens, UniProt Q2TB90); assay: inhibition of HKDC1 glucose phosphorylation – biochemical, W721R variant, dose response (AID 504729); type: functional
T4 sequence (Q2TB90 whole entry): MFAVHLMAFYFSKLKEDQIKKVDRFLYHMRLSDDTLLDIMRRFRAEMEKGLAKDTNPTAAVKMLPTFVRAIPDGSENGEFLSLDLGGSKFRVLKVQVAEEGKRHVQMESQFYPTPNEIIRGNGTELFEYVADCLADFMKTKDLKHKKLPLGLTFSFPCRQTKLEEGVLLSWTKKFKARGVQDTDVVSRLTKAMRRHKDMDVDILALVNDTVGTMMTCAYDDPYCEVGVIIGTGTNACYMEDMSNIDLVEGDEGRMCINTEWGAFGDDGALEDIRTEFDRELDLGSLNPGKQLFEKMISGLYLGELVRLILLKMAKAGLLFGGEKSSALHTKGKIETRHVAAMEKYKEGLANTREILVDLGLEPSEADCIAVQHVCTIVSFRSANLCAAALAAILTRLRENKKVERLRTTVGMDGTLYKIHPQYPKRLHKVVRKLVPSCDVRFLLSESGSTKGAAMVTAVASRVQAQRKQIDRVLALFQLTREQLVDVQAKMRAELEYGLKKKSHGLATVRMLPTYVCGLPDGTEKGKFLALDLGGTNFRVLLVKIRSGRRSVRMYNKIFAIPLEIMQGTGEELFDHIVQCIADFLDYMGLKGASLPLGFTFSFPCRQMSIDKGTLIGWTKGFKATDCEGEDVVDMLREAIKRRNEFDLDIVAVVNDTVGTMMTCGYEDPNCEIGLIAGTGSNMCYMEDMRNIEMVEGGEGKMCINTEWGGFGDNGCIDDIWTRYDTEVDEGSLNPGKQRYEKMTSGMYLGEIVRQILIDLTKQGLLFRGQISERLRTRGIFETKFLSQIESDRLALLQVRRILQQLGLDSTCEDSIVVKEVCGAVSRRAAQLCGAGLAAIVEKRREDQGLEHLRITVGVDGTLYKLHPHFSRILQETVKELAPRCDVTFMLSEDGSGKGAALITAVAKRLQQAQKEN

[20] = target: T5, Lysine-specific demethylase 4C (Homo sapiens, UniProt Q9H3R0); assay: inhibition of JMJD2C H3K9me3 demethylation – biochemical, DELFIA europium, cherry-picked samples, dose response (AID 488835); type: functional
T5 sequence (Q9H3R0 whole entry): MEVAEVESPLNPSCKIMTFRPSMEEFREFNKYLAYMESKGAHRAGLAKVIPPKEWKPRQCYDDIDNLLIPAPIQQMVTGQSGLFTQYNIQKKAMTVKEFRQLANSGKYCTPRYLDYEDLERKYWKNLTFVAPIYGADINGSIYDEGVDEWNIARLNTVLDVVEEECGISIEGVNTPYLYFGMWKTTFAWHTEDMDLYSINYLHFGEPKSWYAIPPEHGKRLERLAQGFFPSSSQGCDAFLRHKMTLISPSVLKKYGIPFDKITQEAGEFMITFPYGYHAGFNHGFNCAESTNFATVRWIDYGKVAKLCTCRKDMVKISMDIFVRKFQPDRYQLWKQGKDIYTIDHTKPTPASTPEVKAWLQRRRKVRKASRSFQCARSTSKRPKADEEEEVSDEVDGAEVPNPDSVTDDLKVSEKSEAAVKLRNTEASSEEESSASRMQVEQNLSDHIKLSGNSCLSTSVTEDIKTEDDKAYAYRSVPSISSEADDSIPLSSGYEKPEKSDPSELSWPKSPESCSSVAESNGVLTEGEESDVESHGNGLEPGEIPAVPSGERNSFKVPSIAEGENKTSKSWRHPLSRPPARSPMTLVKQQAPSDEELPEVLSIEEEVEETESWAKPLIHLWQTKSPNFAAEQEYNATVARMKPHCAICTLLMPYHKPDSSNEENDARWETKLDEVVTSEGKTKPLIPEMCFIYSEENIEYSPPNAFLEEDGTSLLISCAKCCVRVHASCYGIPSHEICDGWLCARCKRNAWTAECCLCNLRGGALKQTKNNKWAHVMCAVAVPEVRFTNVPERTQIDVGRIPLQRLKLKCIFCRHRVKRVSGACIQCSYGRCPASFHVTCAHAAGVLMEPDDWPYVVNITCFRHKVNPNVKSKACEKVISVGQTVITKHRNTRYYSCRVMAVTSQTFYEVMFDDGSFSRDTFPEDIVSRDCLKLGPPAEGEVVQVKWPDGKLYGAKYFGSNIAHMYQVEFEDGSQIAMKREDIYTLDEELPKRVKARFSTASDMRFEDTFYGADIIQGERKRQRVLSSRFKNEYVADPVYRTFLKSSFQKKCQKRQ

[21] = system: Vero; assay: viability of Vero cells under compound – cytotoxicity control for flavivirus capping enzyme inhibitors (AID 588742); type: functional; conditions: Chlorocebus sabaeus
[22] = target: Genome polyprotein (dengue virus type 2, UniProt P29990); assay: flavivirus cap methylation enzyme inhibition – biochemical, confirmation dose response, primary screen (AID 588689); type: functional
[23] = target: T6, Mannose-6-phosphate isomerase (Homo sapiens, UniProt P34949); assay: MPI enzyme activity inhibition – biochemical, fluorescence intensity, coupled assay, primary screen (AID 1209)
T6 sequence (P34949 whole entry): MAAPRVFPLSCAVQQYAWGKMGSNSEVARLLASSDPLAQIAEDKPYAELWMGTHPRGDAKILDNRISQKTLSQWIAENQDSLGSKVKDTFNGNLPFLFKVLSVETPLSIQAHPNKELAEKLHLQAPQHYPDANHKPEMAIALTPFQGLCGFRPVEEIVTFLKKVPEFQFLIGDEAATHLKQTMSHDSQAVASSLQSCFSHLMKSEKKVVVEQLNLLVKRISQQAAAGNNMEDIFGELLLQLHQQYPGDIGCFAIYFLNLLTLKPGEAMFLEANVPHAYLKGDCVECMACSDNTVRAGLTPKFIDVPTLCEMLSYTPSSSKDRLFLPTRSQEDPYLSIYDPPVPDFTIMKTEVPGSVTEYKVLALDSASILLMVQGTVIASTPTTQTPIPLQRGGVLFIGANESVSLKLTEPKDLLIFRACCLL

[24] = target: T6, Mannose-6-phosphate isomerase; assay: MPI inhibition at elevated mannose 6-phosphate – biochemical, fluorescence intensity, high mannose 6-phosphate, primary screen (AID 1220)
[25] = target: Hexokinase (Trypanosoma brucei, UniProt Q38C41); assay: Confirmation assay for inhibitors of Trypanosoma brucei hexokinase 1-Analogue-first series. [Related pubchem assays (depositor defined):AID1430, AID1632, AID2516, AID2560, AID2579, AID2600, AID449725, AID492951]; type: functional
[26] = target: T7, Voltage-gated N-type calcium channel alpha-1B subunit/Amyloid beta A4 precursor protein-binding family A member 1 (Homo sapiens, UniProt Q00975+Q02410); type: protein assay
[27] = target: NS3 (Hepatitis C virus, UniProt A3EZJ3); assay: PubChem AID 2173; parameters: species or system Hepacivirus hominis
[28] = target: T7, Voltage-gated N-type calcium channel alpha-1B subunit/Amyloid beta A4 precursor protein-binding family A member 1; type: protein assay; remark: listed apart in the source

Hexokinase, sequence (Q38C41 whole entry): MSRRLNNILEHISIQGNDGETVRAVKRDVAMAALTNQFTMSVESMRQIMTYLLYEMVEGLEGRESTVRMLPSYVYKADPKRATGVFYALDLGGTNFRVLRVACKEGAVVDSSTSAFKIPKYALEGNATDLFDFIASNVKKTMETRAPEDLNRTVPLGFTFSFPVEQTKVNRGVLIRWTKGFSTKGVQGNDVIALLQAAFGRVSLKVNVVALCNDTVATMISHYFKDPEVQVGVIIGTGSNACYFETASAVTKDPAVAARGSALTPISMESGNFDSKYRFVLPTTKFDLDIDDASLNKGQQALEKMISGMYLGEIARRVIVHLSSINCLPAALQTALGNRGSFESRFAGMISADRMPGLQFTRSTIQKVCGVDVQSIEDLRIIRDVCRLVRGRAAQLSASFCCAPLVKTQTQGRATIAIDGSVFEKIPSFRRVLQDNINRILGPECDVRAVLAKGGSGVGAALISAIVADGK
DNA dC->dU-editing enzyme APOBEC-3G, sequence (Q9HC16 whole entry): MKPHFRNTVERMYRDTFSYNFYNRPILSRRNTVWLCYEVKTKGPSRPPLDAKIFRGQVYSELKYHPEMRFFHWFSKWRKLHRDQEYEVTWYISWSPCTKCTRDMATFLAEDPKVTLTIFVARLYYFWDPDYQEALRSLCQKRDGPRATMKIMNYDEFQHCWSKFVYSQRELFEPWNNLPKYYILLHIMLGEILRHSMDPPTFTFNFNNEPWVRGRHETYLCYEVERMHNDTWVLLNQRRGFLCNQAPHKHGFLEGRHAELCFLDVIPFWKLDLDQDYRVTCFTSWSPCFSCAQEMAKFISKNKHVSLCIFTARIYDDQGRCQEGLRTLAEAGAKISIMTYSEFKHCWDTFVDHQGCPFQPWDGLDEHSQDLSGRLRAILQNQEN
G-protein coupled receptor 55, sequence (Q9Y2T6 whole entry): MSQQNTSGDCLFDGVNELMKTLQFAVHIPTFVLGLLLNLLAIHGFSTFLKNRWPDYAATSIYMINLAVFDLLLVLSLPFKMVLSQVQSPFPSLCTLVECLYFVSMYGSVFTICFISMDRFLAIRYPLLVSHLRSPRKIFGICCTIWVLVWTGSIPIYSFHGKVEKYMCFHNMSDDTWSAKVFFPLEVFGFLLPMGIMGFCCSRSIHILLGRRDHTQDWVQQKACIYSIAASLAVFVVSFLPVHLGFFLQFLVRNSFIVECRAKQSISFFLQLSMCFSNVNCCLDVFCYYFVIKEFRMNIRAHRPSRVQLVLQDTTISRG
T7 sequence (Q00975 whole entry): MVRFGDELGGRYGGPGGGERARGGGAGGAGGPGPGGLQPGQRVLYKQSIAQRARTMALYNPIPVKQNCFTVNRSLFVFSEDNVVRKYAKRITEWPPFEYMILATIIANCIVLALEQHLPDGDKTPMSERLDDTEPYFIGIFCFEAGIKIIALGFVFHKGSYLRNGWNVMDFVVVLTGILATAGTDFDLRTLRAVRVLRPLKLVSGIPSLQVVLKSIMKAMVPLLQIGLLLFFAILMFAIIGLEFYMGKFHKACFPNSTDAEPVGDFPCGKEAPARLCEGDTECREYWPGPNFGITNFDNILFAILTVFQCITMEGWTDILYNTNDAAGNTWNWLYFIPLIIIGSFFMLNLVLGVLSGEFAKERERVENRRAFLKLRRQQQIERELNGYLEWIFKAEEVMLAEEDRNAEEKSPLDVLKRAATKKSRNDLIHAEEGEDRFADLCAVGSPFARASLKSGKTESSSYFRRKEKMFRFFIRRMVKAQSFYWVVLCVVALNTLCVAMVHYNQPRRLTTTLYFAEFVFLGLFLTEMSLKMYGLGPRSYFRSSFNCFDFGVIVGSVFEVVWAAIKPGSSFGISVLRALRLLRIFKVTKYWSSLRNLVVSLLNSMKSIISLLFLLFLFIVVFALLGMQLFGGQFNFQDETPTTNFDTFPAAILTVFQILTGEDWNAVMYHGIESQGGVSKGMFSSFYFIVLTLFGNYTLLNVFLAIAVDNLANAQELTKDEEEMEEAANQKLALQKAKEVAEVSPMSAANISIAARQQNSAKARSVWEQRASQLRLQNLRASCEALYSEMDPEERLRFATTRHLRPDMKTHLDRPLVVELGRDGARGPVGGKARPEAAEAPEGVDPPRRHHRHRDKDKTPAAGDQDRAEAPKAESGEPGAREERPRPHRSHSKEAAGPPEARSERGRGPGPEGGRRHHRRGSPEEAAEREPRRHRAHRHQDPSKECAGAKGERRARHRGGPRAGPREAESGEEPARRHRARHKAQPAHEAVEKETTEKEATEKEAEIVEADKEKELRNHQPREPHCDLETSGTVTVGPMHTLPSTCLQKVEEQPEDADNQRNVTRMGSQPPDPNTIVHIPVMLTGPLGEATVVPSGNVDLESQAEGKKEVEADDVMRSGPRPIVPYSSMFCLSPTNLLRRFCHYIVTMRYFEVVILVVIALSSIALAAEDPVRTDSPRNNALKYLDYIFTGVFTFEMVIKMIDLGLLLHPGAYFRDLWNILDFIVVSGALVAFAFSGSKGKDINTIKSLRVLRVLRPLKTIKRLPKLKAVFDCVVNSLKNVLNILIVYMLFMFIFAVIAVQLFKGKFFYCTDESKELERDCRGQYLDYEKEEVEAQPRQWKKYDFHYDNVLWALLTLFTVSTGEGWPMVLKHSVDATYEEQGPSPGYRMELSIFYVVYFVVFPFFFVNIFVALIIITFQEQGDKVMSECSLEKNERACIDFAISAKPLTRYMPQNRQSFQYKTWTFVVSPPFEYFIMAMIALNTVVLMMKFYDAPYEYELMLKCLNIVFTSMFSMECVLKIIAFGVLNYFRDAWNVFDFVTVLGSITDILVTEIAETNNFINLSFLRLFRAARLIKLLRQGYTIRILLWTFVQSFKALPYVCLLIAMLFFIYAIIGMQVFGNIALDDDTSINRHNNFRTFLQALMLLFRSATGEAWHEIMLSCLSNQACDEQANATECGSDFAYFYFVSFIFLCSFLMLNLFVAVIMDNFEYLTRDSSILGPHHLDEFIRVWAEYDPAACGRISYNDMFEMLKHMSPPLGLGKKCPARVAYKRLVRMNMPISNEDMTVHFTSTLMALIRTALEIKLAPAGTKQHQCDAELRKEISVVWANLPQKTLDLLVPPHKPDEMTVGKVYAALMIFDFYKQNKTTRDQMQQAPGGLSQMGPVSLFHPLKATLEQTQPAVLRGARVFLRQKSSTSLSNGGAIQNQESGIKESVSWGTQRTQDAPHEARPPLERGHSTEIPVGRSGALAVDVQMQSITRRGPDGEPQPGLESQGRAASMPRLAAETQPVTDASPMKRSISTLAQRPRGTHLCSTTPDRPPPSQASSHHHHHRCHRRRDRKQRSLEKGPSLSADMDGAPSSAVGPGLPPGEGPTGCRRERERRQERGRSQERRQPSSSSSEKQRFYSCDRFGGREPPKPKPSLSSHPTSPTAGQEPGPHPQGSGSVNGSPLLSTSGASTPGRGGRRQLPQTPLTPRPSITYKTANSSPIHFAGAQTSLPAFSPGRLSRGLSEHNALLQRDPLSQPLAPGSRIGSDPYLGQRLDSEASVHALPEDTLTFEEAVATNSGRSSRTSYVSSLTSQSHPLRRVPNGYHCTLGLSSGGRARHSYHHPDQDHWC
T7 sequence (Q02410 whole entry): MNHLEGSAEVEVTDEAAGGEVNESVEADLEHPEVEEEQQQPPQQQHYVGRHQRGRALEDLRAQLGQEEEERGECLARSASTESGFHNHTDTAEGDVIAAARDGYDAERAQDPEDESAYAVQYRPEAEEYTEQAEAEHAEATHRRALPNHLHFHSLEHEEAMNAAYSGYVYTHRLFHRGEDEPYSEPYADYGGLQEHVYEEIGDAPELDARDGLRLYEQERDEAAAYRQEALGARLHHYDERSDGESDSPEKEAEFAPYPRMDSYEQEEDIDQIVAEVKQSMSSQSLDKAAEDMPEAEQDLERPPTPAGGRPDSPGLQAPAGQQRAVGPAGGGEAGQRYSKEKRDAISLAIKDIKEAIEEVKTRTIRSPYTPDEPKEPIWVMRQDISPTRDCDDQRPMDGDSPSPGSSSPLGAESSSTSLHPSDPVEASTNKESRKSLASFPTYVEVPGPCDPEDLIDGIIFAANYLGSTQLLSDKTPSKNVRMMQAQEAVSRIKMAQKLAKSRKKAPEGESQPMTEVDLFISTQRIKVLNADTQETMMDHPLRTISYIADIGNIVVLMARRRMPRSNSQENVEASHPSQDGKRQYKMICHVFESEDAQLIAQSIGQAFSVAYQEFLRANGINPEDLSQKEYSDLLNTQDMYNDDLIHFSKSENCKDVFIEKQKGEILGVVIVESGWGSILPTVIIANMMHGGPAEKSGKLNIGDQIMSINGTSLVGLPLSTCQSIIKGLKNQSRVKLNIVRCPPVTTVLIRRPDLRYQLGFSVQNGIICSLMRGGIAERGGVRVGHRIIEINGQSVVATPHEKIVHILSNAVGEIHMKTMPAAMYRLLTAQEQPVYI
T2 sequence (Q92731 whole entry): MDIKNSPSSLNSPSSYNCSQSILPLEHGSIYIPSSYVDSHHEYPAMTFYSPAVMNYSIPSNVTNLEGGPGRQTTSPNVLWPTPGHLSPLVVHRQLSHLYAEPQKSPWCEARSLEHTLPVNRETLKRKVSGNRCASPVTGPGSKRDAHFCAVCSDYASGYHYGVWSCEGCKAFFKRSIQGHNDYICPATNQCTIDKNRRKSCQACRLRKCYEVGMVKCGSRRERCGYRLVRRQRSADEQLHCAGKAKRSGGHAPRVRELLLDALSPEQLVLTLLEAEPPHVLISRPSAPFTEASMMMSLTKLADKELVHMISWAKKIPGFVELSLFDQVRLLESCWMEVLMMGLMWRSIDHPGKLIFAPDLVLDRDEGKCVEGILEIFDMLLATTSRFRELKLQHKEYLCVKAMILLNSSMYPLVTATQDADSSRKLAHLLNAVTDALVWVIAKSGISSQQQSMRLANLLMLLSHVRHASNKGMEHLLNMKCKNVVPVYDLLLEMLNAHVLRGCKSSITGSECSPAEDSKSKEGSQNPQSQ

Cn1c(CSc2nc3ccccc3s2)n[nH]c1=S
IC50 [1]: > 100 µM (inactive) | IC50 [2]: 4.35 µM (active) | AC50 [3]: 1.82 µM (active)

OC(CNCCc1ccc(C(F)(F)F)cc1)COC(c1ccccc1)c1ccccc1 (stereo not drawn)
IC50 [4]: 2.65 µM (active) | CC50 [5]: 24.5 µM (active) | EC50 [6]: > 89.2 µM (inactive)

COc1ccc(N2Cc3cccc(C(=O)N4CCN(C(=O)c5ccco5)CC4)c3C2=O)cc1
IC50 [7]: 9.8 µM (active) | IC50 [8]: 5.99 µM (active) | IC50 [9]: > 50 µM (not active) | IC50 [10]: 3.1 µM (active) | IC50 [11]: 1.43 µM (active) | IC50 [12]: 10.2 µM (active) | IC50 [13]: 4.24 µM (active) | IC50 [14]: 9.04 µM (active)

COc1ccc(CCN2C(=O)c3[nH]nc(-c4ccccc4O)c3C2c2cccc(O)c2)cc1OC (stereo not drawn)
IC50 [4]: 2.7 µM (active) | AC50 [15]: 2.44 µM (active) | AC50 [16]: 8.34 µM (active) | AC50 [17]: 17.6 µM (active)

CCOC(=O)C1=C(Cc2ccc(F)cc2)C(=O)c2ccccc2C1=O
IC50 [18]: > 66.6 µM (inactive) | IC50 [19]: 11.4 µM (active) | AC50 [20]: 13.4 µM (active) | CC50 [21]: > 40 µM (active) | IC50 [22]: 86.4 µM (active)

Nn1c(S)nnc1Cc1ccc(Br)cc1
IC50 [23]: > 50 µM (not active) | IC50 [24]: > 50 µM (not active) | IC50 [1]: > 100 µM (inactive) | IC50 [2]: 3.6 µM (active)

Cc1cccc(C(=O)Nc2cc(Cl)ccc2C(=O)O)c1
IC50 [25]: 22.3 µM (active)

O=C(Cn1sc2ccccc2c1=O)Nc1ccc(C(F)(F)F)cc1
IC50 [25]: > 25 µM (inactive)

O=C(COc1ccc(Cl)cc1)N/N=C/c1cccc2cccnc12
IC50 [18]: > 66.6 µM (inactive)

Cc1ccc(C2CC(=O)N3CN(c4ccc(Br)cc4)CSC3=C2C#N)o1 (stereo not drawn)
IC50 [26]: 9.58 µM (active) | IC50 [27]: 7.09 µM (active) | IC50 [28]: 14 µM (active)
